Columns and labels:
[1] = target: human wild type FGFR3 (Homo sapiens (Human), UniProt P22607); assay: FGFR3 pERK Cell Assay; type: cell-based; conditions: HEK-293 cells, 1 hour compound, 100 ng/ml human FGF-acidic; maximum concentration 5 μM
Procedure: HEK-293 cells transfected with dox-inducible human wild type FGFR3 (SEQ ID NO: 5) were plated in a collagen or poly-D-lysine coated 96 well flat bottom plates at 4×10^5 cells/well in complete DMEM medium containing 10% FBS and 1 μg/ml doxycycline and allowed to attach for 24 h at 37° C., 5% CO2. Cells were treated with compound using 1:3 serial dilutions with a maximum final concentration of 5 μM. Compound was incubated on cells for 1 hour at 37° C., 5% CO2. Cells were then stimulated with a final concentration of 100 ng/ml human FGF-acidic (R&D Systems Cat number 232-FA/CF) for 5 minutes at 37° C., 5% CO2. Medium was removed, and cells were lysed with lysis buffer containing phosphatase and protease inhibitors. Phospho ERK1/2 was measured using the Meso Scale Discovery sandwich assay (Meso Scale Discovery cat. no. K151DWD). The assay captures phospho ERK1/2 and detects with a sulfo-tagged total ERK1/2 antibody. The chemiluminescent signal was read on the Sector Imager Plate reader. 100 POC was determined using no test compounds and 0 POC was determined using a control compound. The POC values were fit to a 4-parameter logistic curve as a function of the concentration of the compound, and the IC50 value is the point where the curve crosses 50 POC.

[2] = target: T1, FGFR3 (Homo sapiens (Human), UniProt P22607); assay: LC/MS FGFR3 kobs assay (covalent modification); type: biochemical; conditions: 500 nM FGFR3, 3 μM compound
Procedure: (§1) The LC/MS FGFR1 and FGFR3 kobs assays were conducted as follows. 500 nM FGFR1 (Array BioPharma construct p1702; SEQ ID NO: 1, amino acids 458-765) or FGFR3 (Array BioPharma construct p1700; SEQ ID NO: 5, amino acids 449-759) were incubated with 3 μM compound in 25 mM HEPES (4-(2-hydroxyethyl)-1-piperazineethanesulfonic acid), pH 7.4, 5 mM MgCl2, 150 mM NaCl, 0.5 mM TCEP (tris(2-carboxyethyl) phosphine), and 2% DMSO in a total volume of 20 μL. At each time point, the reaction was quenched with 20 μL of 0.4% formic acid. The extent of protein modification by each compound was determined by LC/MS on an Agilent Technologies 6520 Q-TOF LC/MS. Protein signals were then automatically deconvoluted using Agilent Masshunter software. Deconvoluted mass signals were exported to Tibco Spotfire data analysis program for further processing and normalization.
(§2) Data analysis included five steps. First, the signals for the “DMSO Controls” were analyzed to determine the percent of signal associated with unmodified FGFR1 or FGFR3 at each time point. Next, the percent of the signal associated with the covalent modification was determined. Third, the average nonmodified “DMSO Control” signal was used to normalize the modified protein signals at each time point. The percent of unmodified protein was fit to an exponential decay model where A0 is the Percent Unmodified at the start of the reaction, and kobs is the observed rate constant over the time period.
Target sequence in this assay (P22607 449-759): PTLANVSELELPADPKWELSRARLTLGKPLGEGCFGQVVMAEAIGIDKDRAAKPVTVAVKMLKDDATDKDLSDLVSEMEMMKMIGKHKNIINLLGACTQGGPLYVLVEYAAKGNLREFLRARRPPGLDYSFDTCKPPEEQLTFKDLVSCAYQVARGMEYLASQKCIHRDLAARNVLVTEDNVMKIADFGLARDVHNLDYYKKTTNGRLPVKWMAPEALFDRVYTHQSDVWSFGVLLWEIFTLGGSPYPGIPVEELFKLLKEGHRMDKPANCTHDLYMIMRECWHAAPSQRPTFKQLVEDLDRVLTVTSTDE

[3] = target: T1, FGFR3; assay: FGFR Enzyme Activity Assay (LanthaScreen TR-FRET), FGFR3; type: biochemical; conditions: 25 μM ATP, 10 minute incubation; read-out: FGFR3 Enz FRET IC50
Procedure: FGFR3 kinase activity was measured by the Invitrogen LanthaScreen™ Assay technology which directly measures the amount of substrate phosphorylation by TR-FRET using a flourescently-labeled peptide and Europium-labeled antibody. Briefly, 750 pM N-terminal GST-HIS6 fusion protein with a 3C cleavage site recombinant human FGFR3 (amino acids R397-T806) (ProQinase Cat. No. 1068-0000-1) was incubated with 100 nM Alexa Fluor® 647-Poly-GT Peptide Substrate (Life Technologies Cat. No. PV5836) and 25 μM ATP along with test compound in a buffer consisting of 250 mM HEPES, 25 mM MgCl2, 0.05% TritonX-100, pH 7.5, and 2% DMSO. Compounds were typically prepared in a threefold serial dilution in DMSO and added to the assay to give the appropriate final concentration. After a 10 minute incubation at 22° C., an equal volume of 2 nM LanthaScreen® Eu-PY20 Antibody (Life Technologies Cat. No. PV5691) and 10 mM EDTA were added to quench the kinase reaction and start the detection reaction. After an additional 60 minute incubation at 22° C., the reaction was measured using a PerkinElmer EnVision multimode plate reader via TR-FRET dual wavelength detection, and the percent of control (POC) calculated using a ratiometric emission factor. 100 POC was determined using no test compounds and 0 POC was determined using no enzyme. The POC values were fit to a 4-parameter logistic curve as a function of the concentration of the compound, and the IC50 value is the point where the curve crosses 50 POC.
Target sequence in this assay (P22607 397-806): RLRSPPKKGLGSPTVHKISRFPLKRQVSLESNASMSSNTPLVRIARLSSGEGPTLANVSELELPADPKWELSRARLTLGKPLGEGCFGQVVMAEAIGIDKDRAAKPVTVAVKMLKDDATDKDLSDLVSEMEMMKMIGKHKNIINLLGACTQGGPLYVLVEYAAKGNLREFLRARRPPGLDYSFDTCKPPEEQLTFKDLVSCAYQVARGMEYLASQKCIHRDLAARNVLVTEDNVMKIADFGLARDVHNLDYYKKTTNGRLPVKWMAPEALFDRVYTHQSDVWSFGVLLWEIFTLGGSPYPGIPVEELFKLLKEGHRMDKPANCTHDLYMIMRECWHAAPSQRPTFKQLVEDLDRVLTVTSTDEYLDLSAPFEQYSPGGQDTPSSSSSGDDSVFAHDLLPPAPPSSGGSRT

[4] = target: recombinant human FGFR1 catalytic domain (Homo sapiens (Human), UniProt P11362); assay: FGFR Enzyme Activity Assay (LanthaScreen TR-FRET), FGFR1; type: biochemical; conditions: 15 μM ATP, 20 minutes incubation; read-out: FGFR1 Enz FRET IC50
Procedure: FGFR1 kinase activity was measured by the Invitrogen LanthaScreen™ Assay technology which directly measures the amount of substrate phosphorylation by Time-resolved fluorescence energy transfer (TR-FRET) using a flourescently-labeled peptide and Europium-labeled antibody. Briefly, 200 pM His-tagged recombinant human FGFR1 catalytic domain (amino acids 308-731) (Life Technologies Cat. No. PR4660A) was incubated with 100 nM Alexa Fluor® 647-Poly-GT Peptide Substrate (Life Technologies Cat. No. PV5836) and 15 μM ATP along with test compound in a buffer consisting of 250 mM HEPES, 25 mM MgCl2, 0.05% TritonX-100, pH 7.5, and 2% DMSO. Compounds were typically prepared in a threefold serial dilution in DMSO and added to the assay to give the appropriate final concentration. After a 20 minutes incubation at 22° C., an equal volume of 2 nM LanthaScreen® Eu-PY20 Antibody (Life Technologies Cat. No. PV5691) and 10 mM EDTA was added to quench the kinase reaction and start the detection reaction. After an additional 60 minute incubation at 22° C., the reaction was measured using a PerkinElmer EnVision multimode plate reader via TR-FRET dual wavelength detection, and the percent of control (POC) calculated using a ratiometric emission factor. 100 POC was determined using no test compounds and 0 POC was determined using no enzyme. The POC values were fit to a 4-parameter logistic curve as a function of the concentration of the compound, and the IC50 value is the point where the curve crosses 50 POC.

[5] = target: FGFR1 (Homo sapiens (Human), UniProt P11362); assay: LC/MS FGFR1 kobs assay (covalent modification); type: biochemical; conditions: 500 nM FGFR1, 3 μM compound
Procedure: as §1, §2

FGFR1, sequence (P11362 458-765): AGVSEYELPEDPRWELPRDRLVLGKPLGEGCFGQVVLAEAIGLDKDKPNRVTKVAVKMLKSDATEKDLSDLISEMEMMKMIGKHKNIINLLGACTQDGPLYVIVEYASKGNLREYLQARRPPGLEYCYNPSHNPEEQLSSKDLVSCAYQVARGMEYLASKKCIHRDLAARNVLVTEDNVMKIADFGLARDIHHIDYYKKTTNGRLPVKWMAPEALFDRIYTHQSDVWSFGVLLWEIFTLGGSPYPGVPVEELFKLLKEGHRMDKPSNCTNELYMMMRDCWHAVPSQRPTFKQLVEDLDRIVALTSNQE
human wild type FGFR3, sequence (P22607 23-806): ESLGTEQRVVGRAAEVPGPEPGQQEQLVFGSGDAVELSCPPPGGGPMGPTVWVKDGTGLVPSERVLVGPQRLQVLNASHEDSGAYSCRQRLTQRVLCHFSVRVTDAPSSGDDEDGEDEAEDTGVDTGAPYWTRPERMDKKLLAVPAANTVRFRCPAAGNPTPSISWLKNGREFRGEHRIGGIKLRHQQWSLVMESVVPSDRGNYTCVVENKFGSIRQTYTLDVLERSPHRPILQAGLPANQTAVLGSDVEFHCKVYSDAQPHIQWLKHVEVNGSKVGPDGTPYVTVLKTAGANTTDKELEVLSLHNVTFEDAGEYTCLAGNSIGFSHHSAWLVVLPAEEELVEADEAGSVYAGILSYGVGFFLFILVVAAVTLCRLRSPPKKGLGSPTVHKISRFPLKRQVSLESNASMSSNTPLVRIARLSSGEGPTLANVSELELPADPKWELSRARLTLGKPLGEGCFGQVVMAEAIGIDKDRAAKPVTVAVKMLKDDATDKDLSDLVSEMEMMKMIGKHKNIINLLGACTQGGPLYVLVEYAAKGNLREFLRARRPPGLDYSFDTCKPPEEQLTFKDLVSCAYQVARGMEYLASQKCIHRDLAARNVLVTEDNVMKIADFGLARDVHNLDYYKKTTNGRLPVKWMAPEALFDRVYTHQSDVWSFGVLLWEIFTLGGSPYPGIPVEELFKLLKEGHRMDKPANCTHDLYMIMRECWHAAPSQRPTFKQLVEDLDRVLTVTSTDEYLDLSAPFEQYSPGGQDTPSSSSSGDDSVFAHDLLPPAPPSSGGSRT
recombinant human FGFR1 catalytic domain, sequence (P11362 other isoform, or with tags, fused parts or gaps): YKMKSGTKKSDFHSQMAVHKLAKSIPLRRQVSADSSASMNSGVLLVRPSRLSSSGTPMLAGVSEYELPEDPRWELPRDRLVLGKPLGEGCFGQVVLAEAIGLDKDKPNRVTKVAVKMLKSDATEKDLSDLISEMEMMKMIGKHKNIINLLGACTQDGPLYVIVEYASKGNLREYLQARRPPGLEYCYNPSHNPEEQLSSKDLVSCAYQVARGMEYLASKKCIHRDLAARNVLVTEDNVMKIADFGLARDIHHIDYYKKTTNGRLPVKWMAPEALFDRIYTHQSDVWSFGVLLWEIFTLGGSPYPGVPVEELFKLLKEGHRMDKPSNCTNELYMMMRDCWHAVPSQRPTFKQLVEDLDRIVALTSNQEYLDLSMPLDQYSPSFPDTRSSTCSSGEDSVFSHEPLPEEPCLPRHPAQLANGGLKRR

Compound | IC50 [1] [nM] | FGFR3 Enz kobs [2] [min⁻¹] | IC50 [3] [nM] | IC50 [4] [nM] | FGFR1 Enz kobs [5] [min⁻¹]
COc1cc(Nc2ccc3ncc(-c4ccc(N5CCN(C(=O)C6(F)CN(C(=O)/C=C/CN(C)C)C6)CC5)nc4)nc3c2)cc(OC)c1 [Example 7, (E)-1-(3-(4-(5-(7-((3,5-dimethoxyphenyl)amino)-quinoxalin-2-yl)pyridin-2-yl)piperazine-1-carbonyl)-3-fluoroazetidin-1-yl)-4-(dimethylamino)but-2-en-1-one] | 77 | 0.1309 | 277 | 364 | 0.00659
C=CC(=O)N1CC(F)(C(=O)N2CCN(c3ccc(-c4cnc5ccc(Nc6cc(OC)cc(OC)c6)cc5n4)cn3)CC2)C1 [Example 8, 1-(3-(4-(5-(7-((3,5-dimethoxyphenyl)amino)-quinoxalin-2-yl)pyridin-2-yl)piperazine-1-carbonyl)-3-fluoroazetidin-1-yl)-prop-2-en-1-one] | 154 | 0.06319 | 631 | 831 | 0.00384
COc1cc(Nc2ccc3ncc(-c4cnn(C5CCN(C(=O)C6CN(C(=O)/C=C/CN(C)C)C6)CC5)c4)nc3c2)cc(OC)c1 [Example 9, (E)-1-(3-(4-(4-(7-((3,5-dimethoxyphenyl)amino)-quinoxalin-2-yl)-1H-pyrazol-1-yl)piperidine-1-carbonyl)azetidin-1-yl)-4-(dimethylamino)but-2-en-1-one] | 184 | 0.02139 | 23 | 29 | 0.00278
COc1cc(Nc2ccc3ncc(-c4cnn(C5CCN(C(=O)C6(F)CN(C(=O)/C=C/CN(C)C)C6)CC5)c4)nc3c2)cc(OC)c1 [Example 10, (E)-1-(3-(4-(4-(7-((3,5-dimethoxyphenyl)amino)-quinoxalin-2-yl)-1H-pyrazol-1-yl)piperidine-1-carbonyl)-3-fluoro-azetidin-1-yl)-4-(dimethylamino)but-2-en-1-one] | 14 | 0.09291 | 16 | 35 | 0.01569
COc1cc(Nc2ccc3ncc(-c4cnn(C5CCN(C(=O)C6(C#N)CN(C(=O)/C=C/CN(C)C)C6)CC5)c4)nc3c2)cc(OC)c1 [Example 11, (E)-3-(4-(4-(7-((3,5-dimethoxyphenyl)amino)-quinoxalin-2-yl)-1H-pyrazol-1-yl)piperidine-1-carbonyl)-1-(4-(dimethyl-amino)but-2-enoyl)-azetidine-3-carbonitrile] | 19 | 0.1473 | 7 | 44 | 0.01822
C=CC(=O)N1CC(C#N)(C(=O)N2CCC(n3cc(-c4cnc5ccc(Nc6cc(OC)cc(OC)c6)cc5n4)cn3)CC2)C1 [Example 12, 1-acryloyl-3-(4-(4-(7-((3,5-dimethoxyphenyl)-amino)quinoxalin-2-yl)-1H-pyrazol-1-yl)-piperidine-1-carbonyl)-azetidine-3-carbonitrile] | 22 | 0.07246 | 13 | 89 | 0.0107
COc1cc(Nc2ccc3ncc(-c4cnc(N5CCN(C(=O)C6(F)CN(C(=O)/C=C/CN(C)C)C6)CC5)cc4C)nc3c2)cc(OC)c1 [Example 14, (E)-1-(3-(4-(5-(7-((3,5-dimethoxyphenyl)amino)-quinoxalin-2-yl)-4-methylpyridin-2-yl)-piperazine-1-carbonyl)-3-fluoroazetidin-1-yl)-4-(dimethylamino)but-2-en-1-one] | 540 | 0.04226 | 490 | 1560 | 0.00326

Source: patent US12351571B2, “Substituted quinoxaline compounds as inhibitors of FGFR tyrosine kinases” (ARRAY BIOPHARMA INC., priority 2018, dated 2025)
